Patent publication US6960597B2, “Aza-bridged-bicyclic amino acid derivatives as α4 integrin antagonists” (Orth-McNeil Pharmaceutical, Inc., priority 2000, dated 2005)
Read-outs that look alike come from different tables or passages of the source.

Tests used:
α4β1 integrin receptor = target: T1, α4β1 integrin receptor (Homo sapiens, UniProt P05556+P13612); experiment: Ramos Cell Adhesion Assay (α4β1 Mediated Adhesion/VCAM-1); assay type: cell-based
T1 construct: Ramos Cell Adhesion Assay (α4β1 Mediated Adhesion/VCAM-1); endogenous in cells; host or cells: Ramos cells
Outline: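 Plates coated overnight at 4° C with recombinant hVCAM-1 (4.0 μg/mL, pH 9.0), then blocked with PBS/1% BSA. Ramos cells labelled with 5 μM Calcein AM adhered 1 h at room temperature with compound; after washing, cells were lysed in SDS and fluorescence read at 485/530 nm.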

human α4β7 = target: T2, human α4β7 (Homo sapiens, UniProt P13612+P26010); experiment: α4β7-K562 Cell Adhesion Assay (α4β7 Mediated Adhesion/VCAM-1); assay type: cell-based
T2 construct: expressed in transfected cells
T2 sequence (P13612 34-1032): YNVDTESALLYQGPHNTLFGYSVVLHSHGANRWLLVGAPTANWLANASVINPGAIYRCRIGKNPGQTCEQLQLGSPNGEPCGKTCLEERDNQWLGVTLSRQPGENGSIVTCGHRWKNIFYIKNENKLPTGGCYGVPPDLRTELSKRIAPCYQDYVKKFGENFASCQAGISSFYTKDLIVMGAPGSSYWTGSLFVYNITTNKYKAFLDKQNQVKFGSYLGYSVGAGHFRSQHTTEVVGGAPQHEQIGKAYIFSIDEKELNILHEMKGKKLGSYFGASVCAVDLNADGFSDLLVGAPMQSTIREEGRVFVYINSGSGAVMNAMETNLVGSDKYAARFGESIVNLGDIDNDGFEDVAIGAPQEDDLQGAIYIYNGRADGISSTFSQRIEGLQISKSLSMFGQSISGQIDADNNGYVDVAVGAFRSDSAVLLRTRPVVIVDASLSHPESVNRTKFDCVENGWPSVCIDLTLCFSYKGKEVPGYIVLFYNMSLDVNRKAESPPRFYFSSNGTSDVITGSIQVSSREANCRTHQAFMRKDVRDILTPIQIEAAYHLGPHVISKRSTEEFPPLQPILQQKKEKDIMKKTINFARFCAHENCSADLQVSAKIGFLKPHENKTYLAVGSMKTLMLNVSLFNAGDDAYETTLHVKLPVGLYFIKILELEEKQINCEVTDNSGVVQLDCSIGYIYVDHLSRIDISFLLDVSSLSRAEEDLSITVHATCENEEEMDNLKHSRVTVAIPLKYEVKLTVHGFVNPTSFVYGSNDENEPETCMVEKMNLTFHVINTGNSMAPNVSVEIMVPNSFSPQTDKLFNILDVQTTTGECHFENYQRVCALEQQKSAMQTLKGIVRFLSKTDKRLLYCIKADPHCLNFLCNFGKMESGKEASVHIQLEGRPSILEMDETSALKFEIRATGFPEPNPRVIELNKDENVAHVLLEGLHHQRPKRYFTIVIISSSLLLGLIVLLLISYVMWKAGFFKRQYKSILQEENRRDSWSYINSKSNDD
T2 sequence (P26010 20-798): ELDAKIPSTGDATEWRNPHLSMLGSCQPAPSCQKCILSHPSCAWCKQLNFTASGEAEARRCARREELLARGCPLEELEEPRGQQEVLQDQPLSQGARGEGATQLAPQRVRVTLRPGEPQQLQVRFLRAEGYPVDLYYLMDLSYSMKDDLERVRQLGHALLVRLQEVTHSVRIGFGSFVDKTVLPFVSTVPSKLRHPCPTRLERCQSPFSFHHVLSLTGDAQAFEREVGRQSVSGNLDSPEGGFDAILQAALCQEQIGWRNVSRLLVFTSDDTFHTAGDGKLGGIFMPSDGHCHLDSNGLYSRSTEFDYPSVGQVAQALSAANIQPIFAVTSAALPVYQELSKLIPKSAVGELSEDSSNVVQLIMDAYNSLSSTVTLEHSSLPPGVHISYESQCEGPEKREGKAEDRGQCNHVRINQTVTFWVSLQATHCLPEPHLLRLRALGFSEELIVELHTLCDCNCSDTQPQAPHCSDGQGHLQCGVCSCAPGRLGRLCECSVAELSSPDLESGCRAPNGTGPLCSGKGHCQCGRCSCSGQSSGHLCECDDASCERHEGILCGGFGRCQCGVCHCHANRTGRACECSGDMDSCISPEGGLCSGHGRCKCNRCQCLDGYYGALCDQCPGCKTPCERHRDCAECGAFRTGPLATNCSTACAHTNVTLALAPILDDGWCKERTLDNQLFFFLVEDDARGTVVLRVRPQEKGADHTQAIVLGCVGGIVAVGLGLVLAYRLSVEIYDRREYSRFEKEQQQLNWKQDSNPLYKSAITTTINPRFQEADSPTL
Outline: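 K562 cells stably expressing human α4β7, labelled with 5 μM Calcein AM, adhered for 1 h at room temperature to plates coated with recombinant hVCAM-1 (4.0 μg/mL) in the presence of compound. After washing, cells were lysed in Tris/SDS. Bound cells were read by fluorescence at 485/530 nm.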

[1] = Table III, μM, read-out: Inhibition of Binding of Ramos Cells to Immobilized VCAM-1 IC50
[2] = Table IV, μM, read-out: Inhibition of Binding of K562 Cells to Immobilized VCAM-1 IC50
[3] = Table III, read-out: Inhibition of Binding of Ramos Cells to Immobilized VCAM-1 IC50
[4] = Table IV, read-out: Inhibition of Binding of K562 Cells to Immobilized VCAM-1 IC50
[5] = Table I, racemic mixtures and resolved (S,S) and (R,S) diastereomers, read-out: Antagonist IC50 Activity α4β1
[6] = Table I, racemic mixtures and resolved (S,S) and (R,S) diastereomers, read-out: Antagonist IC50 Activity α4β7

T1 sequence (P05556 21-798, one chain of several): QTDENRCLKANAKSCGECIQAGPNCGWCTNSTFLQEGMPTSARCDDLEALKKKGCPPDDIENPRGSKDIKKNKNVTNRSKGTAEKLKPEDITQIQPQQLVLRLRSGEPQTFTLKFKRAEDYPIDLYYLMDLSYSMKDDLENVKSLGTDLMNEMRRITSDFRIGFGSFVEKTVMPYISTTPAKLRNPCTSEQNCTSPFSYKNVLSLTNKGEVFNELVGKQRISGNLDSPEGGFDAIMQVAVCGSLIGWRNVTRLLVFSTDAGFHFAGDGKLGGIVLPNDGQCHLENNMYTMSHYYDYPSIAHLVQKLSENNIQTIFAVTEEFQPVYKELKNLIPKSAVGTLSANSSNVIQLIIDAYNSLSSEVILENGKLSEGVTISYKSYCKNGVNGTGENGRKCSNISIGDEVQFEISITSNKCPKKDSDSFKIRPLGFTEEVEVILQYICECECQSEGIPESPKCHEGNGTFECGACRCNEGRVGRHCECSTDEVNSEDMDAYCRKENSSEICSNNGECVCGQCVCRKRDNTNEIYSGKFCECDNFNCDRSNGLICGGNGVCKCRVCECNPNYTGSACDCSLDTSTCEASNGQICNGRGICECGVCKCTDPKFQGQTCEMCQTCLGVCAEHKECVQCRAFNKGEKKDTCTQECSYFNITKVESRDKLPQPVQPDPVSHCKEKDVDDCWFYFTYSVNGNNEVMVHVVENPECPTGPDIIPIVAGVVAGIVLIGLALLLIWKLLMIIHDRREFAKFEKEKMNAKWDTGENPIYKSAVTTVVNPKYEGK

Row | SMILES | IC50 (human α4β7; [2]) [µM] | IC50 (α4β1 integrin receptor; [3]) [µM] | IC50 (human α4β7; [4]) [µM] | further results
1 | O=C(O)[C@H](Cc1ccc(OCc2c(Cl)cccc2Cl)cc1)NC(=O)[C@H]1C2CCC(CC2)N1S(=O)(=O)c1ccccc1 [Cpd 41, O-[(2,6-dichlorophenyl)methyl]-N-[[(3R)-2-(phenylsulfonyl)-2-azabicyclo[2.2.2]oct-3-yl]carbonyl]-L-tyrosine] | > 10 | – | – | IC50 (α4β1 integrin receptor; [1]): > 5 µM
2 | O=C(Nc1ccc(C[C@H](NC(=O)C2C3CCC(CC3)N2S(=O)(=O)c2ccccc2)C(=O)O)cc1)c1c(F)cc(F)cc1F (stereo partly drawn) [Cpd 43, 4-[(2,4,6-trifluorobenzoyl)amino]-N-[[2-(phenylsulfonyl)-2-azabicyclo[2.2.2]oct-3-yl]carbonyl]-L-phenylalanine] | – | 0.103 | 0.442 | –
3 | O=C(O)c1ccccc1C(=O)Nc1ccc(C[C@H](NC(=O)[C@@H]2C3CCC(CC3)N2S(=O)(=O)c2ccccc2)C(=O)O)cc1 [Cpd 48, 4-[(2-carboxybenzoyl)amino]-N-[[(3S)-2-(phenylsulfonyl)-2-azabicyclo[2.2.2]oct-3-yl]carbonyl]-L-phenylalanine] | > 10 | – | – | IC50 (α4β1 integrin receptor; [1]): > 5 µM
4 | Cc1ccc(C)n1-c1ccc(C[C@H](NC(=O)C2C3CCC(CC3)N2S(=O)(=O)c2ccccc2)C(=O)O)cc1 (stereo partly drawn) [Cpd 49, 4-(2,5-dimethyl-1H-pyrrol-1-yl)-N-[[2-(phenylsulfonyl)-2-azabicyclo[2.2.2]oct-3-yl]carbonyl]-L-phenylalanine] | > 10 | – | – | IC50 (α4β1 integrin receptor; [1]): > 5 µM
5 | O=C(Nc1ccc(C[C@H](NC(=O)C2C3CCC(CC3)N2S(=O)(=O)c2ccccc2)C(=O)O)cc1)c1ccncc1 (stereo partly drawn) [Cpd 50, 4-[(4-pyridinylcarbonyl)amino]-N-[[2-(phenylsulfonyl)-2-azabicyclo[2.2.2]oct-3-yl]carbonyl]-L-phenylalanine] | – | 0.055 | 0.81 | –
6 | O=C(Nc1ccc(C[C@H](NC(=O)[C@@H]2C3CCC(CC3)N2S(=O)(=O)c2ccccc2)C(=O)O)cc1)c1ccncc1 [Cpd 50a, 4-[(4-pyridinylcarbonyl)amino]-N-[[(3S)-2-(phenylsulfonyl)-2-azabicyclo[2.2.2]oct-3-yl]carbonyl]-L-phenylalanine] | – | 0.054 | 0.223 | –
7 | O=C(N[C@@H](Cc1ccc(NS(=O)(=O)c2c(Cl)cccc2Cl)cc1)C(=O)O)C1C2CCC(CC2)N1S(=O)(=O)c1ccccc1 (stereo partly drawn) [Cpd 51, 4-[[(2,6-dichlorophenyl)sulfonyl]amino]-N-[[2-(phenylsulfonyl)-2-azabicyclo[2.2.2]oct-3-yl]carbonyl]-L-phenylalanine] | > 5 | 0.784 | – | –
8 | CN(C)C(=O)Oc1ccc(C[C@H](NC(=O)[C@@H]2C3CCC(CC3)N2S(=O)(=O)c2ccccc2)C(=O)O)cc1 [Cpd 52a, O-[(dimethylamino)carbonyl]-N-[[(3S)-2-(phenylsulfonyl)-2-azabicyclo[2.2.2]oct-3-yl]carbonyl]-L-tyrosine] | – | – | – | IC50 (α4β1 integrin receptor; Antagonist IC50 Activity α4β1, Table I, racemic mixtures and resolved (S,S) and (R,S) diastereomers): 0.045 µM; IC50 (α4β1 integrin receptor; Inhibition of Binding of Ramos Cells to Immobilized VCAM-1 IC50, Table III): 0.04 µM; IC50 (human α4β7): 0.436 µM; IC50 (human α4β7; read-out: Inhibition of Binding of K562 Cells to Immobilized VCAM-1 IC50, Table IV): 0.436 µM
9 | CC(C)(C)OC(=O)N1CCC(C(=O)Nc2ccc(C[C@H](NC(=O)[C@@H]3C4CCC(CC4)N3S(=O)(=O)c3ccccc3)C(=O)O)cc2)CC1 [Cpd 53a, 4-[[[1-[(1,1-dimethylethoxy)carbonyl]-4-piperidinyl]carbonyl]amino]-N-[[(3S)-2-(phenylsulfonyl)-2-azabicyclo[2.2.2]oct-3-yl]carbonyl]-L-phenylalanine] | – | 0.219 | – | IC50 (α4β1 integrin receptor; [5]): 0.219 µM; IC50 (human α4β7; [6]): 0.693 µM
10 | O=C(Nc1ccc(C[C@H](NC(=O)C2C3CCC(CC3)N2S(=O)(=O)c2ccc(F)cc2)C(=O)O)cc1)c1c(Cl)cccc1Cl (stereo partly drawn) [Cpd 54, 4-[(2,6-dichlorobenzoyl)amino]-N-[[2-[(4-fluorophenyl)sulfonyl]-2-azabicyclo[2.2.2]oct-3-yl]carbonyl]-L-phenylalanine] | – | 0.146 | 0.118 | –
11 | O=C(N[C@@H](Cc1ccc(OC(=O)N2CCOCC2)cc1)C(=O)O)C1C2CCC(CC2)N1S(=O)(=O)c1ccccc1 (stereo partly drawn) [Cpd 56, O-(4-morpholinylcarbonyl)-N-[[2-(phenylsulfonyl)-2-azabicyclo[2.2.2]oct-3-yl]carbonyl]-L-tyrosine] | – | 0.139 | 0.047 | –
12 | CC(C)N(C(=O)Oc1ccc(C[C@H](NC(=O)C2C3CCC(CC3)N2S(=O)(=O)c2ccccc2)C(=O)O)cc1)C(C)C (stereo partly drawn) [Cpd 57, O-[[bis(1-methylethyl)amino]carbonyl]-N-[[2-(phenylsulfonyl)-2-azabicyclo[2.2.2]oct-3-yl]carbonyl]-L-tyrosine] | > 5 | 0.757 | – | –

Continued, in another order:

Row | IC50 (human α4β7; [2]) [µM] | IC50 (α4β1 integrin receptor; [3]) [µM] | IC50 (human α4β7; [4]) [µM] | SMILES | further results
13 | – | 0.022 | 0.279 | O=C(Nc1ccc(C[C@H](NC(=O)C2C3C=CC(CC3)N2S(=O)(=O)c2ccccc2)C(=O)O)cc1)c1c(Cl)cccc1Cl (stereo partly drawn) [Cpd 42, 4-[(2,6-dichlorobenzoyl)amino]-N-[[2-(phenylsulfonyl)-2-azabicyclo[2.2.2]oct-5-en-3-yl]carbonyl]-L-phenylalanine] | –
14 | > 10 | 3.17 | – | CC(C)(C)Oc1ccc(C[C@H](NC(=O)C2C3CCC(CC3)N2S(=O)(=O)c2ccccc2)C(=O)O)cc1 (stereo partly drawn) [Cpd 45, O-(1,1-dimethylethyl)-N-[[2-(phenylsulfonyl)-2-azabicyclo[2.2.2]oct-3-yl]carbonyl]-L-tyrosine] | –
15 | > 10 | – | – | O=C(N[C@@H](CCc1ccccc1)C(=O)O)C1C2CCC(CC2)N1S(=O)(=O)c1ccccc1 (stereo partly drawn) [Cpd 46, α(S)-[[[2-(phenylsulfonyl)-2-azabicyclo[2.2.2]oct-3-yl]carbonyl]amino]-benzenebutanoic acid] | IC50 (α4β1 integrin receptor; [1]): > 5 µM
16 | – | 0.026 | – | O=C(O)[C@H](Cc1ccc(N2C(=O)c3ccccc3C2=O)cc1)NC(=O)[C@@H]1C2CCC(CC2)N1S(=O)(=O)c1ccccc1 [Cpd 47a, 4-(1,3-dihydro-1,3-dioxo-2H-isoindol-2-yl)-N-[[(3S)-2-(phenylsulfonyl)-2-azabicyclo[2.2.2]oct-3-yl]carbonyl]-L-phenylalanine] | IC50 (α4β1 integrin receptor; [5]): 0.026 µM; IC50 (human α4β7; [6]): 0.102 µM
17 | – | 0.303 | 0.091 | COc1cccc(OC)c1C(=O)Nc1ccc(C[C@H](NC(=O)C2C3CCC(CC3)N2S(=O)(=O)c2ccc(F)cc2)C(=O)O)cc1 (stereo partly drawn) [Cpd 55, 4-[(2,6-dimethoxybenzoyl)amino]-N-[[2-[(4-fluorophenyl)sulfonyl]-2-azabicyclo[2.2.2]oct-3-yl]carbonyl]-L-phenylalanine] | –
